Measured values taken from patent US9682925B2, “Cyclopropaneamine compound” (TAKEDA PHARMACEUTICAL COMPANY LIMITED, priority 2011, dated 2017).
Counter-ions that a name gives are not always drawn.

Assays:
Format in all cases: biochemical
[1] = target: T1, human LSD1(171-852) (Homo sapiens, UniProt O60341); test: Measurement of LSD1 inhibitory activity (time-resolved fluorescence, biotin-histone H3 mono methylated K4 peptide); details: read-out: LSD1 IC50 value
T1 construct: to give hLSD1(171-852) purified product; made in house; host or cells: Escherichia coli C43(DE3) pLysS
Method: When the turbidity reached 600 Klett units, the culture temperature was changed to 16° C., IPTG having a final concentration of 0.5 mM was added to induce expression, and the cells were cultured further for 21 hr. The culture medium was centrifuged at 9,000 g for 10 min, and Escherichia coli pellets were recovered.
Escherichia coli pellets in 9 L of the culture medium were suspended in 1340 mL of an extraction buffer (PBS, 5% (V/V) Glycerol), and 6700 units of Benzonase (Merck) were added. Using Branson ultrasonic disintegrator, the suspension was disrupted by ultrasonication for 3 min, and centrifuged at 33,000 g for 20 min, and the supernatant was recovered.
(5) Measurement of LSD1 Inhibitory Activity
After reaction at room temperature for 20 min, 1 mM 2-PCPA solution (5 μL) was added to terminate the reaction. A detection solution (800 mM potassium fluoride, 0.1% BSA) containing europium-labeled antihistone H3 antibody (Wako Pure Chemical Industries, Ltd.) and Streptavidin-XL665 (Cisbio) was further added by 5 μL, and the mixture was left standing for 60 min. A time-resolved fluorescence (excitation 320 nm, emission 615 nm, 665 nm) was measured by Envision (PerkinElmer). The LSD1 inhibitory rate (%) of the test compound was calculated by the following formula. inhibitory rate (%)=(1−(test compound count−blank)÷(control−blank)×100
The count of the LSD1 enzyme reaction mixture under compound non-addition conditions is indicated as control, and the count under compound non-addition and LSD1 enzyme non-addition conditions is indicated as blank.

[2] = target: T2, MAO-B (Homo sapiens, UniProt P27338); test: Measurement of MAO-B inhibitory activity (MAO-Glo Assay)
T2 construct: purchased Sigma-Aldrich Co. LLC
T2 sequence (P27338 1-520): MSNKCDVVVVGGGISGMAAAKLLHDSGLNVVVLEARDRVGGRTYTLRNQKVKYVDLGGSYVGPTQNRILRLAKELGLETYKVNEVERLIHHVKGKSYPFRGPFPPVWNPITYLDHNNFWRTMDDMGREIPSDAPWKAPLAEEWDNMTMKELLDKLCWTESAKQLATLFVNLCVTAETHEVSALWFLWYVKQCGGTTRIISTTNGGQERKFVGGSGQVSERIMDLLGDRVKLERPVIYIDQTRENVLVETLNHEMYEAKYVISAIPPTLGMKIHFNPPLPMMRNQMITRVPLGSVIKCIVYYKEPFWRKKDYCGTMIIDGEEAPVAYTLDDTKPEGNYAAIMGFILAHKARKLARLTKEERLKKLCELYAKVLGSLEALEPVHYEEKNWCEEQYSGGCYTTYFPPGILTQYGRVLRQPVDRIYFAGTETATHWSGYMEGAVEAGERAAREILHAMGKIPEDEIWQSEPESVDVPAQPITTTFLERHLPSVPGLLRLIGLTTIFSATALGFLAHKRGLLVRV
Method: (2) Measurement of MAO-B Inhibitory Activity
The MAO-B inhibitory activity evaluation described below followed the protocol of MAO-Glo (registered trademark) Assay of Promega KK.
(§1) A test compound dissolved in 4% DMSO was added by 12.5 μL to 25 μL reaction solution (100 mM HEPES (pH 7.5), 5% glycerol, 10% DMSO) containing 400 ng of MAO-B enzyme (Sigma-Aldrich Co. LLC.), and the mixture was reacted at room temperature for 10 min. MAO substrate (Promega KK) (16 μM) was added by 12.5 μL to start the reaction. After reaction at room temperature for 60 min, Luciferine detection reagent (Promega KK) (50 μL) was added to terminate the reaction. After reaction at room temperature for 20 min with stirring, the luminescence was measured by Envision (PerkinElmer). The MAO-B inhibitory rate (%) of the test compound was calculated by the following formula. inhibitory rate (%)=(1−(test compound count−blank)÷(control−blank)×100
The count of the MAO-B enzyme reaction mixture under compound non-addition conditions is indicated as control, and the count under compound non-addition and MAO-B enzyme non-addition conditions is indicated as blank.

[3] = target: T3, MAO-A (Homo sapiens, UniProt P21397); test: Measurement of MAO-A inhibitory activity (MAO-Glo Assay)
T3 construct: purchased Sigma-Aldrich Co. LLC
T3 sequence (P21397 1-527): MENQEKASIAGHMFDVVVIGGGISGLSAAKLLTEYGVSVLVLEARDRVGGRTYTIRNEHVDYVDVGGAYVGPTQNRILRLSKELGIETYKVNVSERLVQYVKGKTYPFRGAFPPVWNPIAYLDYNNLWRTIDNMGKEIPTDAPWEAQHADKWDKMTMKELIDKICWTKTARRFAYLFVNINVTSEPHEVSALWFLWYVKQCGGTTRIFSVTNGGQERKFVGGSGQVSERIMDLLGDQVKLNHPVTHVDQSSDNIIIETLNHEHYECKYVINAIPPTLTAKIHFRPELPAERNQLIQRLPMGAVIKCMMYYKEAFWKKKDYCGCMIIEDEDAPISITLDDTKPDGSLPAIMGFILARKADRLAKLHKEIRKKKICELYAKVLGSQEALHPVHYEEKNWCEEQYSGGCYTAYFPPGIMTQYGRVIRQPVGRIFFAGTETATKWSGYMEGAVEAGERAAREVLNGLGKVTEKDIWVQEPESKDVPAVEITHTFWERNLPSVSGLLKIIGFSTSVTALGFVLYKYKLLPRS
Method: (1) Measurement of MAO-A Inhibitory Activity
The MAO-A inhibitory activity evaluation described below followed the protocol of MAO-Glo (registered trademark) Assay of Promega KK.
as §1, with “glycerol)” for “glycerol, 10% DMSO)”, “MAO-A” for “MAO-B”, “(160” for “(16”
The count of the MAO-A enzyme reaction mixture under compound non-addition conditions is indicated as control, and the count under compound non-addition and MAO-A enzyme non-addition conditions is indicated as blank.

IC50 [1] [µM]	IC50 [2] [µM]	IC50 [3] [µM]	Structure (SMILES)
< 0.1	> 10	> 10	O=C(Nc1ccc([C@@H]2C[C@H]2NCC2CC2)cc1)c1cc(-c2ccccc2)on1 (relative stereo) [Example 93, N-(4-{trans-2-[(cyclopropylmethyl)-amino]cyclopropyl}-phenyl)-5-phenyl-1,2-oxazole-3-carboxamide]
< 0.1	> 10	> 10	Cc1c(C(=O)Nc2ccc([C@@H]3C[C@H]3NCC3CC3)cc2)cnn1-c1ccccc1 (relative stereo) [Example 121, N-(4-{trans-2-[(cyclopropylmethyl)amino]cyclopropyl}-phenyl)-5-methyl-1-phenyl-1H-pyrazole-4-carboxamide]
< 0.1	> 10	> 10	O=C(Nc1ccc([C@@H]2C[C@H]2NC2CCN(CC(F)(F)F)CC2)cc1)c1ccc(-c2ccccc2)cc1 (relative stereo) [Example 63, N-{4-[trans-2-{[1-(2,2,2-trifluoroethyl)piperidin-4-yl]amino}cyclopropyl]phenyl}biphenyl-4-carboxamide hydrochloride]
< 0.1	> 10	> 10	O=C(Nc1ccc([C@@H]2C[C@H]2NCC2CC2)cc1)c1ccc(OC(F)(F)F)cc1 (relative stereo) [Example 108, N-(4-{trans-2-[(cyclopropylmethyl)amino]cyclopropyl}phenyl)-4-(trifluoromethoxy)benzamide hydrochloride]
< 0.1	> 10	> 10	O=C(Nc1ccc([C@@H]2C[C@H]2NCC2CC2)cc1)c1coc(-c2ccccc2)n1 (relative stereo) [Example 103, N-(4-{trans-2-[(cyclopropylmethyl)-amino]cyclopropyl}-phenyl)-2-phenyl-1,3-oxazole-4-carboxamide]
< 0.1	> 10	> 10	CN1CCC(CN[C@@H]2C[C@H]2c2ccc(NC(=O)c3cccc(C(F)(F)F)c3)cc2)CC1 (relative stereo) [Example 155, N-{4-[trans-2-{[(1-methylpiperidin-4-yl)methyl]amino}cyclopropyl]phenyl}-3-(trifluoromethyl)benzamide dihydrochloride]
< 0.1	> 10	> 10	Cc1ccc(C(=O)Nc2ccc([C@@H]3C[C@H]3NCC3CC3)cc2)cc1 (relative stereo) [Example 68, N-(4-{trans-2-[(cyclopropylmethyl)amino]cyclopropyl}phenyl)-4-methylbenzamide hydrochloride]
< 0.1	> 10	> 10	O=C(Nc1ccc([C@@H]2C[C@H]2NCC2CC2)cc1)c1cccc(OC(F)(F)F)c1 (relative stereo) [Example 109, N-(4-{trans-2-[(cyclopropylmethyl)amino]cyclopropyl}phenyl)-3-(trifluoromethoxy)benzamide hydrochloride]
< 0.1	> 10	2.5	O=C(Nc1ccc([C@@H]2C[C@H]2NCC2CC2)cc1)c1nc(-c2ccccc2)cs1 (relative stereo) [Example 125, N-(4-{trans-2-[(cyclopropyl-methyl)amino]cyclo-propyl}phenyl)-4-phenyl-1,3-thiazole-2-carboxamide]
< 0.1	> 10	> 10	O=C(Nc1ccc([C@@H]2C[C@H]2NCC2CC2)cc1)c1ccc2nc(-c3ccco3)[nH]c2c1 (relative stereo) [Example 98, N-(4-{trans-2-[(cyclopropylmethyl)-amino]cyclopropyl}-phenyl)-2-(2-furyl)-1H-benzimidazole-6-carboxamide]
1.9	> 10	> 10	O=C(Nc1ccc([C@@H]2C[C@H]2N(CC2CC2)CC2CC2)cc1)c1ccc(-c2ccccc2)cc1 (relative stereo) [Example 60, N-(4-{trans-2-[bis(cyclopropylmethyl)amino]cyclopropyl}phenyl)biphenyl-4-carboxamide hydrochloride]
< 0.1	> 10	> 10	O=C(Nc1ccc([C@@H]2C[C@H]2NCC2CC2)cc1)c1ccc2nc(-c3ccsc3)[nH]c2c1 (relative stereo) [Example 97, N-(4-{trans-2-[(cyclopropylmethyl)-amino]cyclopropyl}-phenyl)-2-(3-thienyl)-1H-benzimidazole-6-carboxamide]
< 0.1	9.7	3.8	O=C(Nc1ccc([C@@H]2C[C@H]2NCc2ccccc2)cc1)c1ccccc1 (relative stereo) [Example 1, N-{4-[trans-2-(benzylamino)cyclopropyl]phenyl}benzamide]
1.8	> 10	> 10	CCCc1ccc(-c2ccc(C(=O)Nc3ccc([C@@H]4C[C@H]4NCC4CC4)cc3)cc2)cc1 (relative stereo) [Example 116, N-(4-{trans-2-[(cyclopropylmethyl)amino]cyclopropyl}-phenyl)-4′-propylbiphenyl-4-carboxamide]
0.24	> 10	> 10	CCCCCCCCN[C@@H]1C[C@H]1c1ccc(NC(=O)c2cccc(Br)c2)cc1 (relative stereo) [Example 4, 3-bromo-N-{4-[trans-2-(octylamino)cyclopropyl]phenyl}benzamide]
< 0.1	> 10	> 10	O=C(Nc1ccc([C@@H]2C[C@H]2NC2CCN(C3CC3)CC2)cc1)c1cccc(C(F)(F)F)c1 (relative stereo) [Example 111, N-(4-{trans-2-[(1-cyclopropylpiperidin-4-yl)amino]cyclopropyl}phenyl)-3-(trifluoromethyl)benzamide dihydrochloride]
